The nature of data set [1]: Pharmacokinetic behavior in mice (plasma concentration by LC-MS/MS). Format: in vivo. The settings on record: male ICR mice. Here is the method: Three healthy ICR mice (SPF grade, from Beijing Vital River Laboratory Animal Technology Co., Ltd.), male, weighing 18-25 g, were intravenously injected with a compound (1 mg/kg) at a volume of 5 mL/kg. The compound was prepared using 5% DMSO+10% Solutol+85% Saline (w/v), and the animals were not fasted before the experiment.
Three healthy ICR mice (SPF grade, from Beijing Vital River Laboratory Animal Technology Co., Ltd.), male, weighing 18-25 g, were intragastrically administered a compound (5 mg/kg) at a volume of 10 mL/kg. The compound was prepared using 5% DMSO+10% Solutol+85% Saline (w/v), and the animals were not fasted before the experiment.
Blood samples (about 0.05 mL each) were collected from the cheeks at 5 min, 15 min, 30 min, 1 h, 2 h, 4 h, 6 h, 8 h, and 24 h after intravenous administration, and at 5 min, 15 min, 30 min, 1 h, 2 h, 4 h, 6 h, 8 h, and 24 h after intragastrical administration, and anticoagulated with heparin sodium. Following collection, the blood samples were placed on ice and the plasma was centrifuged within 1 h (centrifugation conditions: 6,000 g, 3 min, 2 °C to 8°C). The concentration of the compounds in the plasma was determined by liquid chromatography tandem mass spectrometry. The plasma samples were stored in a -80°C freezer before analysis. With plasma concentration data at different time points, pharmacokinetic parameters were calculated by Phoenix WinNonlin8.2.0, and the results are shown in Table 4: Table 4

Data set [2] deals with T1, IRAK4-HiBiT fusion protein (Homo sapiens, UniProt Q9NWZ3).
T1 construct: K562 from ATCC
T1 sequence (Q9NWZ3 1-460): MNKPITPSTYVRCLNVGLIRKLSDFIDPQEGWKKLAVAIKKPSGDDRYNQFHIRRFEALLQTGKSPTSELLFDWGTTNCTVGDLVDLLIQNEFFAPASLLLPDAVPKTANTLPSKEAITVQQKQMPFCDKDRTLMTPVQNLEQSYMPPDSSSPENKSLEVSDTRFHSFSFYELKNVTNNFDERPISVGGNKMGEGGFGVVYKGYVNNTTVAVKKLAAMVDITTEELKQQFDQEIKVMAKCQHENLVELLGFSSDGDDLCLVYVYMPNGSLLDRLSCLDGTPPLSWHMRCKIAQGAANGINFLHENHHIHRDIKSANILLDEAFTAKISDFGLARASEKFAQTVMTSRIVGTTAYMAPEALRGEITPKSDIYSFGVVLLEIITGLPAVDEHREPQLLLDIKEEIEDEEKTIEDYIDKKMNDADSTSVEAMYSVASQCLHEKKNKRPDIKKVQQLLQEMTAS
The data set is described as follows: Detection of HiBiT-IRAK4 proteolysis levels in K562 IRAK4-HiBiT cells (Nano-Glo HiBiT Lytic assay). It is filed as cell-based. On the procedure:
Test Example 1 Detection of HiBiT-IRAK4 proteolysis levels in K562 IRAK4-HiBiT cells co-incubated with compounds of the present application • Reagents, devices, and consumables in experiments: • Nano-Glo Lytic Detection Assay, purchased from Promega; • EnVision, purchased from PerkinElmer; • Name of cell line: K562 IRAK4-HiBiT stable transformation cell strain (capable of stably expressing IRAK4-HiBiT fusion protein), constructed by Shanghai Bioduro Biologics Co., Ltd., where a K562 cell strain was purchased from ATCC. The culture medium is IMDM+10% FBS+1% P/S (volume percentage, where FBS is fetal bovine serum and P/S is Penicillin-Streptomycin, a 1:1 mixture of penicillin and streptomycin antibiotic solution (10,000 units/mL)).
Cell culture: K562 IRAK4-HiBiT cells were incubated at 37°C, and passaged every 2-3 d, with a seeding density of 200,000 cells/mL.
IRAK4-HiBiT proteolysis experiment: • Step 1: Cell seeding and treatment of compound • 1. A 10 mM compound mother liquor was prepared using DMSO, and a compound solution with a working concentration of 1,000 times (the highest working concentration is 10 µM, diluted 3.162 times, with a total of 10 concentration gradients) was prepared using Bravo automatic liquid processing platform. • 2. 40 nL of a compound working solution was transferred to a 384 well plate, and an equal volume of DMSO was added to positive control wells. • 3. 20 µL of a culture solution was added per well and shaken for 10 min. • 4.20 µL of a K562 IRAK4-HiBiT cell suspension was added per well (6,000 cells/well), and an equal volume of culture medium was added to negative control wells. • 5. The well plate was rotated at 1,000 rpm for 1 min. • 6. The cells were incubated in a 5% CO2 incubator at 37°C for 2 h or 6 h. • Step 2: HiBiT Lytic experiment • 1. The well plate was placed at room temperature to equilibrate for 30 min. • 2. 20 µL of Nano-Glo HiBiT Lytic reagent (trade name: Nano-Glo® HiBiT Lytic Detection Reagent) and the well plate was kept in the dark. • 3. The well plate was placed on an orbital shaker at 300 rpm for 5 min. • 4. The cells were incubated at room temperature for 10 min. • 5. The luminous value was read by Envision. • 6. Data was calculated and processed. Degradation degree%=(negative control - experimental well)/(negative control - positive control) * 100%. Using XL-fit software, a degradation curve was obtained by fitting using a 4 Parameter Logistic Model, and the values of Relative DC50 (nM) and Absolute DC50 (nM) were obtained.
Background: HiBiT is a short tag that completes a luciferase, so light tracks the accessible tagged protein.

The subject of data set [3] is LPS induced IL-6 release in human PBMC cells. The data set is described as follows: Inhibition of LPS induced IL-6 release in human PBMC cells (IL-6 HTRF assay). It is filed as cell-based. The settings on record: 2 h compound pre-incubation, LPS 5 ng/mL for 4 h, IL-6 in supernatant. On the procedure:
I. Recovery and seeding of PBMC, and treatment of compounds (human PBMC cells were purchased from Oricell, item number: Fpb003F)
• 1. Preparation of compounds Sample dilutions of a series of concentrations were obtained by dilution in DMSO using Bravo, and then 80 nL was transferred into a cell plate using ECHO. The final concentration of DMSO in the cell culture medium is 0.1%. • 2. Frozen cells were quickly thawed in a 37°C water bath and stirred continuously. • 3. 25 mL of fresh preheated culture medium was added into a 50 mL centrifuge tube, and then the cells were added dropwise. Then the cells were centrifuged at 2,000 rpm for 10 min. • 4. […] The total number of cells required was calculated based on cell concentration to perform the assay. 7×10e4 cells were added per well (70 µL). • 6. The cell plate was placed and incubated in a 5% CO2 incubator at 37°C for 2 h.
• 1. LPS: A stock solution (1 mg/mL) was diluted in dH2O, aliquoted, and stored at -80°C. • 2. 8-fold LPS was added per well (10 µl/well) (with a final concentration of 5 ng/mL). The cells were incubated in a 5% CO2 incubator at 37°C for 4 h. • 3. 70 µl of supernatant was collected per well using Bravo, and then IL-6 HTRF assay was performed. The supernatant may be stored at -80°C.
1. Preparation of standards and sample dilutions. 2. 16 µL of each sample was taken using Bravo and added to wells. Then 16 µL of each standard was taken and added to corresponding wells. 3.4 µL of a premixed IL6 antibody working solution was added to each of all wells. 4. The cell plate was sealed and incubated at room temperature for 2 h. 5.
A general note: Time-resolved FRET reads energy transfer from a long-lived donor to a nearby acceptor.

[4] abbreviates: Intragastric administration (5 mg/kg), 5 mg/kg.
Where [5] appears, read: Intravenous injection (1 mg/kg), 1 mg/kg.
[6] abbreviates: 2 h incubation, read-out: Absolute DC50.
[7] abbreviates: 2 h incubation, read-out: Relative DC50.
Where [8] appears, read: Intragastric administration (5 mg/kg).
[9] abbreviates: Intravenous injection (1 mg/kg).
The mark [10] stands for this setting: mouse, plasma, po, Intragastric administration (5 mg/kg).
[11] abbreviates: mouse, plasma, Intravenous injection (1 mg/kg).

The Cmax is the highest concentration seen after dosing. As usually defined, the Vss is a proportionality between amount in the body and measured concentration, not a real space. Higher therefore signals wide distribution into tissue. As a reminder, the IC50 is the concentration that gives 50% inhibition. Low readings indicate inhibition by little substance, high ones a need for much substance. As usually defined, the AUC(0-t) is the area under the concentration-time curve up to a stated or last time point. In general, bioavailability refers to dose-corrected exposure relative to a reference, in per cent. A low value points to little systemic uptake. The term half-life denotes the time in which the quantity being followed falls by half. High values mean slow decline, low ones rapid decline. The term clearance denotes a measure of how efficiently the substance is removed, as volume per time. Lower therefore signals inefficient removal.

Read-outs that look alike come from different tables or passages of the source.

In the case of `CC(C)(O)c1cc2nn([C@H]3CC[C@H](CCN4CCN5c6ccc(C7(C)CCC(=O)NC7=O)cc6OC[C@H]5C4)CC3)cc2cc1NC(=O)c1cccc(C(F)(F)F)n1` (single isomer, unassigned) [Compound 120-b-2], in data set [1] (setting [4]), the AUClast was 24277 ng·h/mL, the maximum concentration (Cmax) came to 1790 ng/mL, the F% was 98.6% and the T1/2 is on record as 9.45 h. In data set [1] (setting [5]), this compound displayed an AUClast of 4925 ng·h/mL, a CL of 3.03 mL/kg/min, a Cmax of 725 ng/mL and a distribution volume (Vss) of 1.80 L/kg. Also, in data set [2] (2 h incubation), the Dmax was determined as 93%. Further, the DC50 in data set [2] (setting [6]) turned out to be 23.7 nM. For the same compound, the DC50 in data set [2] (setting [7]) was determined as 21.4 nM. The midpoint of inhibition in data set [3], the IC50, lay at 0.75 nM.
In data set [1] (setting [8]), `CC(C)(O)c1cc2nn([C@H]3CC[C@H](CCN4CCN5c6ccc(C7CCC(=O)NC7=O)cc6OC[C@@H]5C4)CC3)cc2cc1NC(=O)c1cccc(C(F)(F)F)n1` (stereo partly drawn) [Compound 1-a] gave an AUClast of 19336 ng·h/mL, a Cmax of 1067 ng/mL, a F% of 31.7% and a T1/2 of 17.5 h. Also, in data set [1] (setting [9]), the AUClast worked out at 8794 ng·h/mL, the CL turned out to be 1.25 mL/kg/min, the peak concentration (Cmax) is on record as 832 ng/mL and the volume of distribution (Vss) came to 1.64 L/kg. This compound also displayed a Dmax in data set [2] (2 h incubation) of 90%. The DC50 in data set [2] (setting [6]) was 0.42 nM. Moreover, in data set [2] (setting [7]), the DC50 was found to be 0.58 nM. The compound also showed a half-maximal inhibitory concentration (IC50) in data set [3] of 0.91 nM.
In the case of `CC(C)(O)c1cc2nn([C@H]3CC[C@H](CCN4CCN5c6c(F)cc(C7CCC(=O)NC7=O)cc6OCC5C4)CC3)cc2cc1NC(=O)c1cccc(C(F)(F)F)n1` (stereo partly drawn) [Compound 4], in data set [1] (setting [10]), the area under the curve AUC(0-t) was 34200 ng·h/mL, the bioavailability turned out to be 60.1% and the half-life was 888 min. For the same compound, the highest concentration (Cmax) in data set [1] (mouse, plasma, po, Intragastric administration (5 mg/kg), read-out: Cmax) was 2130 ng/mL. In data set [1] (setting [11]), this compound yielded an AUC(0-t) of 10500 ng·h/mL and a clearance of 1.27 mL/min/kg. Besides, the Cmax in data set [1] (mouse, plasma, Intravenous injection (1 mg/kg), read-out: Cmax) stood at 1320 ng/mL. Moreover, the Vd in data set [1] (mouse, plasma, Intravenous injection (1 mg/kg), read-out: Vss) is 1.07 L/kg. Further, the Dmax in data set [2] (2 h incubation) stood at 90%. The DC50 in data set [2] (setting [6]) was 9.85 nM. Further, in data set [2] (setting [7]), the DC50 is 8.71 nM. The compound also came in with a half-maximal inhibitory concentration (IC50) in data set [3] of 4.08 nM.
In data set [1] (setting [8]), `COc1cc2nn([C@H]3CC[C@H](CCN4CCC5(CC4)OCc4cc(C6CCC(=O)NC6=O)ccc45)CC3)cc2cc1NC(=O)c1cccc(C(F)(F)F)n1` (stereo partly drawn) [Compound 46] had an AUClast of 3815 ng·h/mL, a peak concentration (Cmax) of 207 ng/mL, a F% of 68.7% and a T1/2 of 27.3 h. In data set [1] (setting [9]), this compound showed an AUClast of 932 ng·h/mL, a CL of 6.80 mL/kg/min, a peak concentration (Cmax) of 128 ng/mL and a Vss of 21.4 L/kg. In data set [2] (6 h incubation), this compound displayed a Dmax of 93.6%. Further, the DC50 in data set [2] (6 h incubation, read-out: Absolute DC50) was 0.92 nM. Besides, the DC50 in data set [2] (6 h incubation, read-out: Relative DC50) came to 0.79 nM. This compound also gave an IC50 in data set [3] of 13.7 nM.

Source of the values: EP4696691A1, “TRICYCLIC COMPOUND, AND PREPARATION METHOD THEREFOR AND USE THEREOF” (Shanghai Huilun Pharmaceutical Co., Ltd., priority 2023, dated 2024).
